From patent US7867979B2, “Drug composition for treating 2 type diabetes and diabetic chronicity complications” (Hainan Deze Drug Research Co., Ltd., priority 2006, dated 2011)

Experiments:
Type in all cases: in vivo, Goto-Kakizaki rats (GK)
diabetic GK rats = experiment: Blood glucose and lipid in GK rats; conditions: different ratio experiment; GK rats, high fat diet, oral daily 12 weeks, total 20 mg/kg per Table 3
Description: The GK (Goto-Kakizaki) rat is the spontaneous model of diabetes, the pathogenesis of GK rat is very similar to the pathogenesis of type 2 diabetes. After diabetes attack, hyperglycemia and insulin secretion weakened emerge rapidly, the latter diseases may be complicated by retinopathy, micro-vascular disease, neuropathy, nephropathy in GK rat. The GK rats have been widely used in type 2 diabetes study, so we choose GK rat as the animal model of the following experiment. […] Then they can be mixed or diluted in accordance with the dose and the ratio. 1.3 Goto-Kakizaki rats (GK) (4 months age, ♀♂) and Wistar rats (SPF level, ♀♂) were purchased from Shanghai SLAC laboratory animal Co., Ltd. In addition to the normal rats, the other rats were fed with high fat diet (20% protein and 3.5% cholesterol). After the rats was feeding adaptation for one week, The GK rats which the blood glucose level was more than 11.1 mmol/L were selected, and then divided into the following groups random: GK rats control group (n=10); mangiferin groups (10, 30, 200 mg/kg, each group 10 rats); berberine groups (10, 20, 150 mg/kg, each group 10 rats); composition group 1[[mangiferin (10 mg/kg)+berberine (10 mg/kg)], 10 rats]; composition group 2[[mangiferin (200 mg/kg)+berberine (150 mg/kg)], 10 rats]. Wistar rats are normal control group (10 rats). GK rats control group and Wistar rats group were given saline. The other groups were given test drugs. Test samples were administrated orally at the same time every day for 12 weeks. 3.1 Blood Glucose and lipid: The blood specimens were taken at the end of the test. Plasma glucose (GLU), triglycerides (TG), total cholesterol (TC) were determined by HITACHI7080 automatic biochemistry analyzer. […] The results have been calculated as mean±SD ( x±SD) and the comparisons of the data have been done by t-test. […] Mangiferin and berberine are prepared in accordance with the method of preparation of example 1 and 2. Then they can be mixed in accordance with the dose and the ratio such as table 3. 1.2 Animal: Goto-Kakizaki rats (GK) (4 months age, ♀♂) and Wistar rats (SPF level, ♀♂) were purchased from Shanghai SLAC laboratory animal Co., Ltd. In addition to the normal rats, the other rats were fed with high fat diet (20% protein and 3.5% cholesterol). After the rats was feeding adaptation for one week, GK rats that the blood glucose level of the GK rats was more than 11.1 mmol/L were selected, and then random divided into the following groups as follows (Table 3): There are ten rats in every group. GK rats control group and wistar rats group were given saline. The other groups were given test drugs. Test samples were administrated orally at the same time every day for 12 weeks. The measurements are as same as the above experiment.

Propyl dialdehyde (MDA) = Propyl dialdehyde (MDA) in kidney tissue homogenate of GK rats; conditions: different ratio experiment, oral daily 12 weeks, total 20 mg/kg per Table 3
Experimental: (§1) GK rats control group (n=10); mangiferin groups (10, 30, 200 mg/kg, each group 10 rats); berberine groups (10, 20, 150 mg/kg, each group 10 rats); composition group 1[[mangiferin (10 mg/kg)+berberine (10 mg/kg)], 10 rats]; composition group 2[[mangiferin (200 mg/kg)+berberine (150 mg/kg)], 10 rats]. Wistar rats are normal control group (10 rats). GK rats control group and Wistar rats group were given saline. The other groups were given test drugs. Test samples were administrated orally at the same time every day for 12 weeks. 3.3.1 Preparation of tissue homogenate: Rats were killed by femoral artery bloodletting after administration of the rats for 12-weeks. Kidney tissue of the rats were taken, the blood of kidney tissue were washed with cooling saline (4° C.), then the remnant water was absorbed with filter paper, the kidney tissue was weighed. Per gram kidney tissue was added into 10 ml saline, which was put in homogenized machine (10,000 r/min, 10 seconds, 3rd), 10% tissue homogenate was prepared, the tissue homogenate was centrifuged (4000 r/min) for 10 minutes to get supernatant, the supernatant was saved in −20° C. for determination. 3.3.2.2 Propyl dialdehyde (MDA): MDA is determined by TBA, the test box was bought from Nanjing Jiancheng Bioengineering Research Institute. […] The results have been calculated as mean±SD ( x±SD) and the comparisons of the data have been done by t-test. There are ten rats in every group. GK rats control group and wistar rats group were given saline. The other groups were given test drugs. Test samples were administrated orally at the same time every day for 12 weeks. The measurements are as same as the above experiment.

[1] = system: Superoxidedismutase (SOD); experiment: Superoxidedismutase (SOD) in kidney tissue homogenate of GK rats; conditions: different ratio experiment, oral daily 12 weeks, total 20 mg/kg per Table 3
Experimental: as §1, with “[…] SOD” for “3.3.2.2 Propyl dialdehyde (MDA): MDA”, “Xanthine Oxidase calorimetric analysis,” for “TBA,”

aldose reductase (AR) = target: T1, aldose reductase (AR) (Rattus norvegicus, UniProt P07943); experiment: Activity of aldose reductase (AR) of lens in GK rats; conditions: different ratio experiment, oral daily 12 weeks, specific activity, in U/mg protein; for AR activity of lens NADH (0.1 mmol/L): total 20 mg/kg per Table 3, NADH 0.1 mmol/L system; for AR activity of lens NADPH (0.1 mmol/L): total 20 mg/kg per Table 3, NADPH 0.1 mmol/L system
T1 construct: from tissue; host or cells: lens of GK (Goto-Kakizaki) and Wistar rats
Experimental: GK rats control group (n=10); mangiferin groups (10, 30, 200 mg/kg, each group 10 rats); berberine groups (10, 20, 150 mg/kg, each group 10 rats); composition group 1[[mangiferin (10 mg/kg)+berberine (10 mg/kg)], 10 rats]; composition group 2[[mangiferin (200 mg/kg)+berberine (150 mg/kg)], 10 rats]. Wistar rats are normal control group (10 rats). GK rats control group and Wistar rats group were given saline. The other groups were given test drugs. Test samples were administrated orally at the same time every day for 12 weeks. […] At the End of the experiment, the left side lens of rats was taken, then these lenses were added into glycerol and put into refrigerator (−80° C.□) to preserve to determine AR activity. The determination method of AR activity refer to Maragoudakis's method and change slightly, that is: the activity of enzyme is indicated by the record of the absorbance of NADPH in 340 nm decline IOU. […] The second reaction system is 0.1 mmol/L NADH instead of NADPH, the rest of the reagent is same as one of the first response system. The activity of enzyme and the protein content in tissue homogenate are determined at the same time. a unit enzyme activity is indicated by the quantity of the enzyme that produce 1 μmol NADP^+ (or NDA^+) in one minute. […] The results have been calculated as mean±SD ( x±SD) and the comparisons of the data have been done by t-test. There are ten rats in every group. GK rats control group and wistar rats group were given saline. The other groups were given test drugs. Test samples were administrated orally at the same time every day for 12 weeks. The measurements are as same as the above experiment.

Structure (SMILES) | GLU (diabetic GK rats) | Lipid TC (diabetic GK rats) | Lipid TG (diabetic GK rats) | Measurements about oxidation MDA (Propyl dialdehyde (MDA)) | Measurements about oxidation SOD [1] | AR activity of lens NADH (0.1 mmol/L) (aldose reductase (AR)) | AR activity of lens NADPH (0.1 mmol/L) (aldose reductase (AR))
O=c1c2cc(O)c(O)cc2oc2cc(O)c(C3OC(CO)C(O)C(O)C3O)c(O)c12 (centres unmarked) [Composition A] | 14.11 ± 2.03 mmol/L | 3.26 ± 0.26 mmol/L | 2.79 ± 0.30 mmol/L | 3.43 ± 0.89 nmol/mg pro | 168.26 ± 13.50 U/mg pro | 1.97 ± 0.46 | 3.11 ± 0.56
COc1ccc2cc3[n+](cc2c1OC)CCc1cc2c(cc1-3)OCO2 [Composition H] | 12.34 ± 2.09 mmol/L | 3.33 ± 0.26 mmol/L | 2.91 ± 0.09 mmol/L | 3.52 ± 0.77 nmol/mg pro | 171.10 ± 13.81 U/mg pro | 1.39 ± 0.53 | 2.48 ± 0.58
